The test system of the assay is P388 leukemia ip, CD2F1 mice, survival T/C. The experiment in a line: NCI In Vivo Anticancer Drug Screen. Data for tumor model P388 Leukemia (intraperitoneal) in CD2F1 (CDF1) mice. The note with it: endpoint: median survival time, higher = longer survival. In outline:
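Mice carrying the transplanted tumor received test compound or vehicle. Survival was recorded in each group, and the value is the treated-group measurement divided by that of the vehicle-treated control group.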

The mark [1] stands for this setting: dose: 25.0 mg/kg/injection, schedule: Q01DX009 (ip), vehicle: Klucel (hydroxypropylcellulose) (HPC).
Where [2] appears, read: dose: 50.0 mg/kg/injection, schedule: Q01DX009 (ip), vehicle: Klucel (hydroxypropylcellulose) (HPC).
Setting [3] is: dose: 50.0 mg/kg/injection, schedule: Q01DX009 (ip), vehicle: saline.
Where [4] appears, read: dose: 100.0 mg/kg/injection, schedule: Q01DX009 (ip), vehicle: saline.
The mark [5] stands for this setting: dose: 200.0 mg/kg/injection, schedule: Q01DX009 (ip), vehicle: saline.
The mark [6] stands for this setting: dose: 60.0 mg/kg/injection, schedule: Q01DX005 (ip), vehicle: Klucel (hydroxypropylcellulose) (HPC).
Setting [7] is: dose: 120.0 mg/kg/injection, schedule: Q01DX005 (ip), vehicle: Klucel (hydroxypropylcellulose) (HPC).
Setting [8] is: dose: 100.0 mg/kg/injection, schedule: Q01DX001 (ip), vehicle: Klucel (hydroxypropylcellulose) (HPC).

The source of these data is PubChem BioAssay AID330 (DTP/NCI, 2004).

Each structure is given as a SMILES string. Values joined by “and” are separate entries in the source; they are usually repeats but may differ in a detail not shown here. Equal entries are not always repeated. Toxic doses and inconclusive results are not listed.

As to `N#CNc1nnnn1-c1ccccc1` (tested in a mixture with another compound), the T/C by setting is: (dose: 100.0 mg/kg/injection, schedule: Q04DX003 (ip), vehicle: Klucel (hydroxypropylcellulose) (HPC)) 96 % of control; (dose: 200.0 mg/kg/injection, schedule: Q04DX003 (ip), vehicle: Klucel (hydroxypropylcellulose) (HPC)) 92 % of control; (dose: 400.0 mg/kg/injection, schedule: Q04DX003 (ip), vehicle: Klucel (hydroxypropylcellulose) (HPC)) 98 % of control.
Regarding `CN1C(=O)c2ccccc2NC12CCN(Cc1ccccc1)CC2`, the T/C is 103 % of control (dose: 25.0 mg/kg/injection, schedule: Q01DX005 (ip), vehicle: Klucel (hydroxypropylcellulose) (HPC)); 95 % of control (dose: 50.0 mg/kg/injection, schedule: Q01DX005 (ip), vehicle: Klucel (hydroxypropylcellulose) (HPC)); 97 % of control (dose: 100.0 mg/kg/injection, schedule: Q01DX005 (ip), vehicle: Klucel (hydroxypropylcellulose) (HPC)).
Regarding `COc1cc(C=O)cc(Br)c1O`, the T/C reads like this: under setting [1], 108 % of control; under setting [2], 108 % of control; (dose: 100.0 mg/kg/injection, schedule: Q01DX009 (ip), vehicle: Klucel (hydroxypropylcellulose) (HPC)) 108 % of control; (dose: 200.0 mg/kg/injection, schedule: Q01DX009 (ip), vehicle: Klucel (hydroxypropylcellulose) (HPC)) 105 % of control.
`COc1ccc2c(c1)s/c(=N/N)n2CCCS(=O)(=O)O`: the T/C is, setting by setting: under setting [3], 109 % of control; under setting [4], 103 % of control; under setting [5], 110 % of control.
With `NCCC(=O)OCN1C(=O)C2C3C=CC(C2C1=O)C1C2C(=O)N(COC(=O)CCN)C(=O)C2C31` (stereo unspecified), the T/C by setting is: (dose: 12.5 mg/kg/injection, schedule: Q01DX009 (ip), vehicle: water) 88 % of control; (dose: 25.0 mg/kg/injection, schedule: Q01DX009 (ip), vehicle: water) 102 % of control; (dose: 50.0 mg/kg/injection, schedule: Q01DX009 (ip), vehicle: water) 99 % of control; (dose: 100.0 mg/kg/injection, schedule: Q01DX009 (ip), vehicle: water) 100 % of control; (dose: 200.0 mg/kg/injection, schedule: Q01DX009 (ip), vehicle: water) 118 % of control.
As for `CC12CCC(c3sc(N)c(C#N)c31)C2(C)C` (stereo unspecified), the T/C is, setting by setting: (dose: 12.5 mg/kg/injection, schedule: Q01DX009 (ip), vehicle: Klucel (hydroxypropylcellulose) (HPC)) 114 % of control; under setting [1], 104 % of control; under setting [2], 104 % of control.
On to `CCOC(=O)N1CCc2cc(OC)c(OC)cc2/C1=C/c1cc(OC)c(OC)cc1Br`, for which the T/C reads like this: (dose: 12.5 mg/kg/injection, schedule: Q01DX009 (ip), vehicle: other) 94 % of control; (dose: 25.0 mg/kg/injection, schedule: Q01DX009 (ip), vehicle: other) 96 % of control; (dose: 50.0 mg/kg/injection, schedule: Q01DX009 (ip), vehicle: other) 96 % of control; (dose: 100.0 mg/kg/injection, schedule: Q01DX009 (ip), vehicle: other) 93 % of control; (dose: 200.0 mg/kg/injection, schedule: Q01DX009 (ip), vehicle: other) 93 % of control.
Regarding `N#Cc1nnc2cc(-c3ccccc3)nn2c1-c1ccco1`, the T/C is, setting by setting: under setting [6], 98 % of control; under setting [7], 90 % of control.
As to `O=c1cc(-c2ccccc2)[nH]c2c1CCCC2`, the T/C was 116 % of control (dose: 100.0 mg/kg/injection, schedule: Q01DX009 (ip), vehicle: saline with Tween-80); 176 % of control and 186 % of control (dose: 400.0 mg/kg/injection, schedule: Q01DX009 (ip), vehicle: saline with Tween-80).
Consider `O=C(Cc1ccc(C2=NCCN2)cc1[N+](=O)[O-])c1ccc(C2=NCCN2)cc1`, for which the T/C was 97 % of control (dose: 0.39 mg/kg/injection, schedule: Q01DX005 (ip), vehicle: saline); 101 % of control (dose: 0.79 mg/kg/injection, schedule: Q01DX005 (ip), vehicle: saline); 101 % of control and 87 % of control (dose: 1.56 mg/kg/injection, schedule: Q01DX005 (ip), vehicle: saline); 106 % of control and 87 % of control (dose: 6.25 mg/kg/injection, schedule: Q01DX005 (ip), vehicle: saline).
`[O]=[Ge]([c]1ccccc1)[c]1ccccc1`: the T/C is, setting by setting: under setting [3], 95 % of control; under setting [4], 96 % of control; under setting [5], 92 % of control.
As to `N=C(N)c1cccc([N+](=O)[O-])c1`, the T/C reads like this: under setting [3], 98 % of control; under setting [4], 96 % of control.
Turning to `C/C=C\c1noc2c1C(=O)OC(C)C2` (stereo unspecified), the T/C (dose: 60.0 mg/kg/injection, schedule: Q01DX005 (ip), vehicle: saline with Tween-80) was 104 % of control; the T/C (dose: 120.0 mg/kg/injection, schedule: Q01DX005 (ip), vehicle: saline with Tween-80) is 96 % of control; the T/C (dose: 240.0 mg/kg/injection, schedule: Q01DX005 (ip), vehicle: saline with Tween-80) was 103 % of control.
On to `CN1C(=O)C2N(C(=O)C1(C)S)c1ccccc1C2(C)C` (stereo unspecified), for which the T/C was 102 % of control under setting [3], 93 % of control under setting [4] and 101 % of control under setting [5].
On to `CNC(=O)OCc1c(Cl)nc2n1CCS2`, for which the T/C is 109 % of control (dose: 25.0 mg/kg/injection, schedule: Q01DX001 (ip), vehicle: Klucel (hydroxypropylcellulose) (HPC)); 109 % of control (dose: 50.0 mg/kg/injection, schedule: Q01DX001 (ip), vehicle: Klucel (hydroxypropylcellulose) (HPC)); 106 % of control under setting [8].
Turning to `COC1(OC)C(c2ccc([N+](=O)[O-])cc2)C([N+](=O)[O-])C1(OC)OC` (stereo unspecified), the T/C by setting is: under setting [6], 90 % of control; under setting [7], 93 % of control; (dose: 240.0 mg/kg/injection, schedule: Q01DX005 (ip), vehicle: Klucel (hydroxypropylcellulose) (HPC)) 89 % of control.
For `CC(C)(C(=O)O)c1csc(-c2ccc(Cl)cc2)n1`, the T/C is 98 % of control (dose: 50.0 mg/kg/injection, schedule: Q01DX005 (ip), vehicle: saline with Tween-80); 102 % of control (dose: 100.0 mg/kg/injection, schedule: Q01DX005 (ip), vehicle: saline with Tween-80); 93 % of control (dose: 200.0 mg/kg/injection, schedule: Q01DX005 (ip), vehicle: saline with Tween-80).
Turning to `Nc1n[nH]c(=O)n1N`, the T/C is, setting by setting: under setting [8], 106 % of control; (dose: 200.0 mg/kg/injection, schedule: Q01DX001 (ip), vehicle: Klucel (hydroxypropylcellulose) (HPC)) 100 % of control; (dose: 400.0 mg/kg/injection, schedule: Q01DX001 (ip), vehicle: Klucel (hydroxypropylcellulose) (HPC)) 107 % of control.
Turning to `CCCCOP(O)(=S)OCCCC.[Ho]`, the T/C by setting is: (dose: 66.0 mg/kg/injection, schedule: Q01DX001 (ip), vehicle: saline with Tween-80) 100 % of control; (dose: 100.0 mg/kg/injection, schedule: Q01DX001 (ip), vehicle: saline with Tween-80) 98 % of control; (dose: 150.0 mg/kg/injection, schedule: Q01DX001 (ip), vehicle: saline with Tween-80) 98 % of control; (dose: 200.0 mg/kg/injection, schedule: Q01DX001 (ip), vehicle: saline with Tween-80) 90 % of control; (dose: 400.0 mg/kg/injection, schedule: Q01DX001 (ip), vehicle: saline with Tween-80) 90 % of control.
In the case of `N#CC12CCC(CC1)CC2Cl` (stereo unspecified), the T/C (dose: 0.5 mg/kg/injection, schedule: Q01DX009 (ip), vehicle: saline with Tween-80) is 108 % of control; the T/C (dose: 1.0 mg/kg/injection, schedule: Q01DX009 (ip), vehicle: saline with Tween-80) was 100 % of control; the T/C (dose: 2.0 mg/kg/injection, schedule: Q01DX009 (ip), vehicle: saline with Tween-80) was 106 % of control; the T/C (dose: 4.0 mg/kg/injection, schedule: Q01DX009 (ip), vehicle: saline with Tween-80) was 113 % of control.
